# Results published in patent US6855697B1, “Troxerutin with a high content of trihydroxyethylrutoside and process for its preparation” (Negma-Lerads, priority 1998, dated 2005).
# “Also recorded” adds a separate entry of the source.
# Test system: red blood cell aggregation
# Experiment: Ex vivo inhibition of red blood cell aggregation on human blood
# Format: cell-based
# Description: This difference in efficacy was confirmed by the superiority of the enriched troxerutin according to the invention (trihydroxyethylrutoside content in the region of 95%) compared with commercially available troxerutins (content in the region of 84%). The advantage of decreasing the aggregation of red blood cells lies in a reduction in the total blood viscosity, and consequently in better fluidity of the blood. This property is manifested by an increase in the venous return and in the microcirculatory flow rate (increase in the density of the infused capillaries).
row,Structure (SMILES),Inhibition of red blood cell aggregation
1,"C[C@@H]1O[C@@H](OC[C@H]2O[C@@H](Oc3c(-c4ccc(OCCO)c(OCCO)c4)oc4cc(OCCO)cc(OCCO)c4c3=O)[C@H](O)[C@@H](O)[C@@H]2O)[C@H](O)[C@H](O)[C@H]1O [tetrahydroxyethyl derivative, 5,7,3′,4′-tetrahydroxyethylrutoside, reference compound]",significantly improved
2,"C[C@@H]1O[C@@H](OC[C@H]2O[C@@H](Oc3c(-c4ccc(OCCO)c(OCCO)c4)oc4cc(OCCO)cc(O)c4c3=O)[C@H](O)[C@@H](O)[C@@H]2O)[C@H](O)[C@H](O)[C@H]1O [trihydroxyethyl derivative, 7,3′,4′-trihydroxyethylrutoside]",significantly improved; also recorded: more effective than the tetrahydroxyethyl derivative
